Data as given in patent US8748470B2, “Methods for treating ovarian cancer by inhibiting fatty acid binding proteins” (The University of Chicago, priority 2011, dated 2014).

Key:
HSL phosphorylation = assay: immunoblot for phosphorylated hormone sensitive lipase (p-HSL) in adipocyte/SKOV3ip1 coculture; format: cell-based, human; details: pretreated with 10 μM propranolol
Text: FIGS. 9a-9d Cocultivation of ovarian cancer cells with adipocytes activates lipolysis in adipocytes and β-oxidation in cancer cells. (a) Quantitative RT-PCR for perilipin 1 in primary human omental adipocytes (Adi) cultured with and without SKOV3ip1 ovarian cancer (OvCa) cells. Bars report mean fold change relative to glyceraldehyde 3-phosphate dehydrogenase expression±s.e.m. (b) Immunoblot for phosphorylated hormone sensitive lipase (p-HSL) and total HSL in SKOV3ip1 cells cocultured with (+) and without (−) adipocytes and pretreated with 10 μM propranolol, a β-adrenergic receptor antagonist. (c) SKOV3ip1 cells were cocultured (1 h) with adipocytes, treated with isoproterenol (positive control) or 14-22 amide (negative control) and protein kinase A (PKA) activity was assessed. (d) β-oxidation in MONTY-1 OvCa cells cocultured with primary human adipocytes (L-carnitine, positive control; etomoxir, negative control). The graph reports the average oxidation rate at the indicated times±s.e.m.
Immunoblotting. In coculture experiments, primary human omental adipocytes were added to CMFDA-labeled SKOV3ip1 cells in SFM (1:5, PCV adipocytes:SFM) and incubated for 24 h. The adipocytes were removed and the SKOV3ip1 cells were subjected to FACS sorting to remove any remaining adipocytes in experiments involving FABP4 expression. […]

[1] = tested on: ID8 mouse ovarian cancer cells; assay: tumor burden in mice after bursal injection of ID8 cells and treatment with FABP4 inhibitor; format: in vivo; details: 20 mg/kg body weight daily by oral gavage from day 60 after ID8 injection, assessed after 30 d
Description: (a) Immune competent mice were injected with 1 million ID8 cells under the ovarian bursa. […] Number of metastases (a) and metastatic tumor weight (b) were assessed 30 d after the FABP4 inhibitor or control vehicle treatment.

[2] = tested on: human ovarian cancer cells (HeyA8 or SKOV3ip1); assay: ex vivo ovarian cancer cell proliferation on sections of human omentum; format: cell-based; details: HeyA8 or SKOV3ip1, fluorescently labeled, 24 h
Text: Representative images (left) and quantified fluorescence (right) were shown. Bars report means±s.e.m.

[3] = tested on: ID8 mouse ovarian cancer cells; assay: tumor burden in mice after intraperitoneal injection of shRNA-transfected ID8 cells; format: in vivo; details: 10 weeks after intraperitoneal injection of shRNA-transfected ID8 cells, vs control group
Text: (§1) FIGS. 16a-16d Effects of FABP4 downregulation. (a) FABP4 mRNA expression in ID8 mouse ovarian cancer cells transfected with FABP4 small hairpin RNA (shRNA) (F4) or vector control shRNA (VC) in the presence (+) or absence (−) of mouse adipocytes. Bars report means±s.e.m. (b) Tumor burden in mice 10 weeks after intraperitoneal injection of ID8 mouse ovarian cancer cells transfected with 5 million shRNA (F4 or VC). (c) Metastatic tumor burden in mice 10 weeks after intraperitoneal injection of ID8 mouse ovarian cancer cells transfected with 5 million shRNA (F4 or VC). (d) mRNA expression of FABP4 in tumors collected 10 weeks after intraperitonel injection of ID 8 mouse ovarian cancer cells transferred with FABP4 shRNA or vector control shRNA. FABP4 mRNA expression was measured by quantitiative RT-PCR.
Animal experiments. All animal experiments were approved by the Institutional Animal Care and Use Committee, University of Chicago. Xenograft animal experiments and in vivo homing were conducted in female immune-compromised athymic nude mice. […] Tumor volumes were measured as described (Zou et al., 2007) over 24 d and tumor weight determined at the end of the experiment. […] Metastatic tumor weight and number of metastatic nodules were determined at the end of each experiment and tumor tissue fixed in 10% formalin.

FABP4 mRNA = FABP4 mRNA expression in ID8 cells transfected with shRNA (quantitative RT-PCR); format: cell-based, mouse; details: ID8 cells transfected with FABP4 shRNA vs vector control
Text: as §1, with “(d) mRNA expression of FABP4 in tumors collected 10 weeks after intraperitonel injection of ID 8 mouse ovarian cancer cells transferred with FABP4 shRNA or vector control shRNA.” left out
Quantitative real-time PCR. […] Real-time quantitative reverse transcription-PCR (RT-PCR) was performed as described (Sawada et al., 2008) using the following probes (Applied Biosystems, Carlsbad, Calif.): acyl-coenzyme A oxidase (ACOX1, Hs01074241_m1), CXCR1 (IL-8 receptor, Hs00174146 ml), carnitine palmitoyltransferase 1a (CPT1a, Hs00912681_m1), fatty acid binding protein 4 (FABP4; human, Hs00609791_m1; mouse, Mm00445878_m1), perilipin 1 (PLIN1, Hs00160173_m1) and glyceraldehyde-3-phosphate dehydrogenase (GAPDH; human, Hs00266705_g1; mouse, Mm99999915_g1). Relative mRNA gene expression was calculated using the 2^−ΔΔCt method as described (Shell et al., 2007). […]

SKOV3ip1 cells [4] = assay: lipid accumulation in cancer cells cocultured with primary human omental adipocytes (Bodipy 493/503, confocal microscopy); format: cell-based
Text: (§2) FIGS. 11a-11g FABP4 has a key role in the interaction of cancer cells with adipocytes. (a) Representative immunohistochemical staining (bottom) for FABP4 in serial sections of primary ovarian tumor and corresponding omental metastatic tissues from a subject with stage IIIC advanced serous ovarian cancer (as classified by the International Federation of Gynecology and Obstetrics). Hematoxylin and eosin (H & E) staining is in the top images. The graph on the right is a summary of FABP4 protein expression scoring in 20 subjects, as assessed by immunohistochemistry. The scoring (0, 1 or 2, corresponding to negative, weak or strong) was performed in different tissue compartments: Benign ovarian stroma (A), primary ovarian cancer in the ovary (B), ovarian cancer metastatic to the omentum (C), interface of ovarian cancer cells into adipocytes (Adi) (D), and adipocytes (E). Error bars, ±s.e.m. […]
Lipid visualization. […] Adipocytes and extracellular fatty acids were washed away with HBSS containing 0.2% fatty-acid free BSA and total fluorescence per well in triplicate was quantified. […] Quantification of Bodipy neutral lipid dye was performed using Imaris software (Bitplane Inc., South Windor, Conn.) and normalized to number of nuclei in field (5-10 fields/condition). […]

SKOV3ip1 cells [5] = assay: invasion assay of SKOV3ip1 cells toward adipocytes; format: cell-based, human; details: inhibitor added to coculture; used at 10 μM; 24 h
Text: as §2, with “±s.e.m. (b) Confocal microscopy images of lipid accumulation in SKOV3ip1 cells cocultured with or without primary human omental adipocytes and a FABP4 inhibitor (nuclear counterstaining). One of two experiments, conducted with different human subject samples, is shown. (c) Invasion assay of SKOV3ip1 cells toward adipocytes in the absence or presence of the FABP4 inhibitor HTS01037. Bars report mean fold change±s.e.m. One of two experiments, using two different human subject samples, is shown.” for “±s.e.m.”

## CC(C)NCC(O)COc1cccc2ccccc12 (centres unmarked) [propranolol]
HSL phosphorylation
  ovarian cancer cell-induced HSL activation: partially reversed

## CCc1c(-c2ccccc2)c(-c2ccccc2)nn1-c1ccccc1-c1cccc(OCC(=O)O)c1 [BMS309403, ((2′-(5-ethyl-3,4-diphenyl-1H-pyrazol-1-yl)(1,1′-biphenyl)-3-yl)oxy)-acetic acid]
[1]
  tumor burden (number of metastases, metastatic tumor weight): significantly reduced
[2]
  human ovarian cancer cell proliferation on sections of human omentum: reduces human ovarian cancer cell proliferation

## FABP4 shRNA: FABP4 small hairpin RNA (shRNA); comprises a nucleic acid sequence of SEQ ID NO: 1 (CCGGCTGGATGGAAATTTGCATCAACTCGAGTTGATGCAAATTTCCATCCAGTTTTTG)
[3]
  tumor burden, intraperitoneal model: substantially lowered
FABP4 mRNA
  mRNA expression level of FABP4: decreased

## COC(=O)c1sc(-c2cccs2)cc1NC(=O)C=CC(=O)O [HTS01037, 4-{[2-(methoxycarbonyl)-5-(2-thienyl)-3-thienyl]amino}-4-oxo-2-butenoic acid]
SKOV3ip1 cells [4]; 36 h coculture, Bodipy 493/503
  lipid uptake in SKOV3ip1 cells cocultured with human omentum adipocytes: prevents lipid uptake
SKOV3ip1 cells [4]; inhibitor added to coculture of ovarian cancer cells and adipocytes, used at 10 μM
  lipid accumulation in the cancer cells: drastically reduced
SKOV3ip1 cells [5]
  adipocyte-mediated invasion: drastically reduced
